7 molecules from US8829015B2 (Novartis AG, priority 2005, dated 2014) can be followed below.

Several values for one entry are separate records, joined by “and”; a condition that tells them apart may be missing. Equal values may be shown once. Entries after “also recorded” stand apart in the source; their conditions may differ. Where a name gives a salt, the structure may show the parent alone.

Data set [1] in a line: Form conversion on exposure to solvent vapor, air, moisture or room conditions. The format is physicochemical.
Data set [2] can be described thus: Stability studies on storage. The format is physicochemical. As to conditions: for form after storage: 1 month at 80° C. and 75% relative humidity; for form transition after storage: storage at various relative humidities.
The nature of data set [3]: Intrinsic dissolution rate (rotating disk). In kind it is physicochemical. As for the experimental part: Intrinsic Dissolution Rate (IDR): Dissolution rate measurements were performed at 37° C. using the rotating disk method (VanKell Instrument). A single rotation speed of 200 rpm was used. For IDR in 0.1N HCl, an 800 mL volume, and for IDR in water, a 200 mL volume were used. The solution was continuously pumped through a UV measuring cell and recycled to the dissolution vessel.
The measurements were carried out on a VanKel instrument using a Cary 100 photometer.

Data set [4] is described as follows: Solubility by gravimetric techniques at different temperatures, residue by XRPD.
Data set [5] is described as follows: Equilibration of hydrochloride forms A, B and C with solvents, XRPD. In kind it is physicochemical. From the text: Then the solutions were filtered and the solid part investigated by XRPD.
[6] abbreviates: in the presence of methanol vapor.
The mark [7] stands for this setting: dissolution medium pH 2 (citrate buffer).
The mark [8] stands for this setting: 0.0001N HCl, 25° C., after 24 hours.
Setting [9] is: 0.001N HCl, 25° C., after 24 hours.
Setting [10] is: 0.1N HCl, 50° C., after 24 hours.
[11] abbreviates: Methanol/Water (99.5/0.5) v/v, 20° C., 1 hour.
Where [12] appears, read: Methanol/Water (99.5/0.5) v/v, 45° C., 24 hours.

On to `Cc1cn(-c2cc(NC(=O)c3ccc(C)c(Nc4nccc(-c5cccnc5)n4)c3)cc(C(F)(F)F)c2)cn1` [Amorphous form of the hydrochloride salt], for which the form conversion entry in data set [1] (setting [6]) was “converts to form B”. In data set [2], the form after storage entry is “showed a mixture with form A”. Further, the “form transition after storage” value in data set [2] is reported as “spontaneously crystallizes to form A; also recorded: spontaneously converts to the form A hydrochloride salt”. In addition, the “Intrinsic Dissolution Rate value” came out at 0.2508 mg/min/cm^2 in data set [3] (dissolution medium HCl 0.1 N) and 0.0250 mg/min/cm^2 in data set [3] (setting [7]).
As for `Cc1cn(-c2cc(NC(=O)c3ccc(C)c(Nc4nccc(-c5cccnc5)n4)c3)cc(C(F)(F)F)c2)cn1` [Form A′ of the hydrochloride salt], the form conversion entry in data set [1] (under room conditions) is recorded as “converts within a few minutes under room conditions to form A”.
In the case of `Cc1cn(-c2cc(NC(=O)c3ccc(C)c(Nc4nccc(-c5cccnc5)n4)c3)cc(C(F)(F)F)c2)cn1` [Form B′ of the hydrochloride salt], the form conversion result was “converts back to the monohydrate” in data set [1] (exposed to moisture) and “converts within a few minutes under room conditions to form B” in data set [1] (under room conditions).
As for `Cc1cn(-c2cc(NC(=O)c3ccc(C)c(Nc4nccc(-c5cccnc5)n4)c3)cc(C(F)(F)F)c2)cn1` [Form C of the hydrochloride salt], the form conversion entry in data set [1] (setting [6]) was “converts to form B”. Further, the Solubility amounted to 1.67 mg/mL in data set [4] (setting [8]); 1.29 mg/mL in data set [4] (setting [9]); 6.72 mg/mL in data set [4] (0.001N HCl, 50° C., after 24 hours); 1.37 mg/mL in data set [4] (0.01N HCl, 25° C., after 24 hours); 1.69 mg/mL in data set [4] (0.01N HCl, 50° C., after 24 hours); 2.35 mg/mL in data set [4] (0.1N HCl, 25° C., after 24 hours). Further, the Solubility stood at 8.30 mg/mL in data set [4] (setting [10]); 18.20 mg/mL in data set [4] (Methanol, 25° C., after 24 hours); 55.26 mg/mL in data set [4] (Methanol, 50° C., after 24 hours); 18.88 mg/mL in data set [4] (Methanol/Water (95/5) v/v, 20° C., 10 minutes); 13.03 mg/mL in data set [4] (Methanol/Water (95/5) v/v, 20° C., 1 hour); 11.76 mg/mL in data set [4] (Methanol/Water (95/5) v/v, 20° C., 24 hours). The Solubility is 37.68 mg/mL in data set [4] (Methanol/Water (95/5) v/v, 45° C., 10 minutes); 31.15 mg/mL in data set [4] (Methanol/Water (95/5) v/v, 45° C., 1 hour); 32.26 mg/mL in data set [4] (Methanol/Water (95/5) v/v, 45° C., 24 hours); 9.73 mg/mL in data set [4] (Methanol/Water (95/5) v/v, −10° C., 10 minutes); 7.74 mg/mL in data set [4] (Methanol/Water (95/5) v/v, −10° C., 1 hour); 11.00 mg/mL in data set [4] (Methanol/Water (95/5) v/v, −10° C., 24 hours). In addition, the Solubility is reported as 24.34 mg/mL in data set [4] (Methanol/Water (99.5/0.5) v/v, 20° C., 10 minutes); 17.70 mg/mL in data set [4] (setting [11]); 12.09 mg/mL in data set [4] (Methanol/Water (99.5/0.5) v/v, 20° C., 24 hours); 39.86 mg/mL in data set [4] (Methanol/Water (99.5/0.5) v/v, 45° C., 10 minutes); 46.15 mg/mL in data set [4] (Methanol/Water (99.5/0.5) v/v, 45° C., 1 hour); 45.59 mg/mL in data set [4] (setting [12]). In addition, the Solubility in data set [4] (Methanol/Water (99.5/0.5) v/v, −10° C., 10 minutes) came out at 11.91 mg/mL; in data set [4] (Methanol/Water (99.5/0.5) v/v, −10° C., 1 hour) it was 7.99 mg/mL; in data set [4] (Methanol/Water (99.5/0.5) v/v, −10° C., 24 hours), 6.12 mg/mL; in data set [4] (Water, 25° C., after 24 hours) it was 1.47 mg/mL; in data set [4] (Water, 50° C., after 24 hours), 1.31 mg/mL. The “XRPD (form of the solid)” value in data set [4] (setting [8]) is on record as “C + A”; in data set [4] (setting [9]) it was “C + A”; in data set [4] (setting [10]) it was “A+”; in data set [4] (setting [11]), “C + B”; in data set [4] (setting [12]), “C + B”; in data set [4] (Water, 25° C., after 24 hours) it was “C + A”. Besides, the form after storage entry in data set [2] is “showed a mixture with form A”. Besides, in data set [2], the “form transition after storage” value is given as “No form transitions were observed”. For the same molecule, the “form transition on equilibration” value in data set [5] (ethanol/water (99:1), 50° C., 1 day) is “transitioned to a mixture of all three forms”; in data set [5] (methanol, 50° C., 1 day) it was “transitioned to form B”; in data set [5] (methanol, one day, 25° C.), “transitioned to form B”; in data set [5] (tetrahydrofuran, 50° C., 1 day) it was “to a mixture of forms B and C”; in data set [5] (water, 50° C., 1 day), “transitioned to form A”; in data set [5] (water, one day, 25° C.), “transitioned to form A”. The “Intrinsic Dissolution Rate value” in data set [3] (dissolution medium HCl 0.0001 N) is 0.0004 mg/min/cm^2; in data set [3] (dissolution medium HCl 0.001 N), 0.0057 mg/min/cm^2; in data set [3] (dissolution medium HCl 0.01 N), 0.0247 mg/min/cm^2; in data set [3] (dissolution medium HCl 0.1 N), 0.2323 mg/min/cm^2 and 0.3213 mg/min/cm^2; in data set [3] (dissolution medium Water) it was 0.000 mg/min/cm^2; in data set [3] (setting [7]), 0.0099 mg/min/cm^2.
As to `Cc1cn(-c2cc(NC(=O)c3ccc(C)c(Nc4nccc(-c5cccnc5)n4)c3)cc(C(F)(F)F)c2)cn1` [Form C′ of the hydrochloride salt], the form conversion result in data set [1] (under room conditions) is “converts within a few minutes under room conditions to a mixture of forms B and C”.
Consider `Cc1cn(-c2cc(NC(=O)c3ccc(C)c(Nc4nccc(-c5cccnc5)n4)c3)cc(C(F)(F)F)c2)cn1` [Form SB of the hydrochloride salt], for which the form conversion result in data set [1] (exposed to air) was “converts quickly to the monohydrate form B when exposed to air”.
Consider `Cc1cn(-c2cc(NC(=O)c3ccc(C)c(Nc4nccc(-c5cccnc5)n4)c3)cc(C(F)(F)F)c2)cn1` [Form SC of the hydrochloride salt], for which, in data set [1] (exposed to air), the form conversion entry is “converts quickly to the monohydrate form C when exposed to air”.
